Values of other authors in patent publication US20180009934A1, “HIGH […] […] RESINS” (priority 2016, published 2018).

Details: monomer property, Table 1; species and route not given

Structure (SMILES)	Toxicity LD50
C=Cc1ccc(C(C)(C)C)cc1 [Monomer 1, 4-tert butyl styrene]	>2000 mg/kg
C=Cc1ccccc1 [STYRENE, styrene]	>2000 mg/kg
